Measurements from patent US11964980B2, “Crystalline forms of (S)-1-(4-fluorophenyl)-1-(2-(4-(6-(1-methyl-1H-pyrazol-4-yl)pyrrolo[2,1- f][1,2,4]triazin-4-yl)piperazinyl)-pyrimidin-5-yl)ethan-1-amine and methods of making” (Blueprint Medicines Corporation, priority 2019, dated 2024).
Entries after “also recorded” stand apart in the source; their conditions may differ.

Key:
[1] = tested on: mast cell burden (serum tryptase, bone marrow mast cells, KIT D816V allele burden); experiment: Phase 2 PIONEER trial Part 1: measures of mast cell burden; format: in vivo, human
Method: (§1) This is a Phase 2, randomized, double-blind, placebo-controlled study comparing the efficacy and safety of Compound (I)+best supportive care (BSC) with placebo+BSC in patients with ISM and SSM whose symptoms are not adequately controlled by BSC. The study is conducted in three parts. In Part 1, the optimal dose Compound (I) (recommended phase 2 dose (RP2D)) was identified in patients with ISM. In Part 2, patients with ISM and SSM are randomly assigned to the RP2D of Compound (I) identified in Part 1+BSC, or to matching placebo+BSC. In Part 3, patients who have completed treatment in Part 1 or Part 2 of the study participate in a long-term extension, receiving Compound (I) at the RP2D+BSC.
Once BSC was optimized (between Day −98 and Day −71) and doses were stable for ≥14 days, ISM-SAF data was collected for an additional 14 days to determine eligibility based on symptom severity i.e., to identify ISM and SSM patients having moderate-to-severe symptoms. Patients not meeting the symptom severity threshold were deemed screen failures and were not eligible for study participation. Patients having moderate-to-severe symptoms and meeting the threshold for symptom severity began other screening procedures, including the following: Bone marrow (BM) biopsy (an archival sample obtained within the preceding 24 weeks or a fresh sample) and skin biopsy of lesional and nonlesional skin (in patients with cutaneous mastocytosis (CM)) were performed for confirmation of SM diagnosis and quantification of mast cells (MCs); patients with CM (maculopapular) had skin photographs taken. […]
Compound (I) was administered orally, once a day in continuous 28-day cycles. Patients were assessed weekly for the first 4 weeks, then every 4 weeks (until the RP2D was determined) for safety, laboratory monitoring, and quality of life (QoL) assessments. […] After completion of 12 weeks of treatment, BM and skin biopsy were repeated for MC quantification and skin photographs were taken in patients with baseline CM. […]

[2] = tested on: patients with indolent systemic mastocytosis; experiment: Phase 2 PIONEER trial Part 1: safety; format: in vivo, human
Method: as §1
In Part 1 of the study, approximately 40 patients were randomly assigned to 1 of 3 doses of Compound (I) or to placebo. Each dose-level cohort and placebo group in Part 1 was composed of 10 patients. The 3 dose levels of Compound (I) were tested in parallel: 25, 50, and 100 mg. Patients, study staff, and the Sponsor were blinded to treatment assignment.
Compound (I) was administered orally, once a day in continuous 28-day cycles. Patients were assessed weekly for the first 4 weeks, then every 4 weeks (until the RP2D was determined) for safety, laboratory monitoring, and quality of life (QoL) assessments. Intensive pharmacokinetic (PK) sampling was performed in all patients. The ISM-SAF was completed once a day. After completion of 12 weeks of treatment, BM and skin biopsy were repeated for MC quantification and skin photographs were taken in patients with baseline CM.
Part 1 of the PIONEER trial was designed to determine the RP2D by evaluating three doses of Compound (I) (25 mg, 50 mg and 100 mg QD) versus placebo. Key eligibility criteria include adults with ISM confirmed by central pathology review of bone marrow biopsy (according to WHO criteria) and moderate-to-severe symptom burden despite best supportive care medicines. Overall, 39 patients were enrolled in Part 1 across four concurrent cohorts, consisting of 10 patients each in the Compound (I) dose cohorts and nine patients in the placebo cohort.

SMILES: Cn1cc(-c2cc3c(N4CCN(c5ncc([C@@](C)(N)c6ccc(F)cc6)cn5)CC4)ncnn3c2)cn1 [Compound (I), (S)-1-(4-fluorophenyl)-1-(2-(4-(6-(1-methyl-1H-pyrazol-4-yl)pyrrolo[2,1-f][1,2,4]triazin-4-yl)piperazin-1-yl)pyrimidin-5-yl)ethan-1-amine]
- Blood KIT D816V allele fraction ([1]; 25 mg QD, similar to 50 mg and 100 mg QD): significant reduction
- Serum tryptase, mast cell burden and KIT D816V allele burden ([1]; 25 mg once daily, ISM patients, vs placebo, FIG. 13): significant reductions; also recorded: robust reductions; also recorded: robust declines
- KIT D816V allele burden ([1]; all dose cohorts (25, 50, 100 mg once daily), ISM patients, FIG. 12): significant decreases
- Grade of all adverse events reported ([2]; 25 mg QD dose cohort): Grade 1 or 2
- Patients with serious AEs, Grade 3 or higher AEs, or dose modifications ([2]; 25 mg QD dose cohort): No patients
- Grade ≥3 AEs ([2]; 25 mg once daily cohort): No grade ≥3 AEs
- % of subjects with ≥1 AE ([2]; 25 mg, n = 10, any grade): 100%
- AE Bone Pain ([2]; 25 mg, n = 10, any grade): 0%
- AE Diarrhea ([2]; 25 mg, n = 10, any grade): 0%
- AE Dizziness ([2]; 25 mg, n = 10, any grade): 30%
- AE Face edema ([2]; 25 mg, n = 10, any grade): 10%
- AE Fatigue ([2]; 25 mg, n = 10, any grade): 40%
- AE Headache ([2]; 25 mg, n = 10, any grade): 30%
- AE Nausea ([2]; 25 mg, n = 10, any grade): 10%
- AE Periorbital edema ([2]; 25 mg, n = 10, any grade): 0%
- AE Peripheral edema ([2]; 25 mg, n = 10, any grade): 10%
- % of subjects with ≥1 AE ([2]; 25 mg, n = 10, grade 3): 0%
- AE Bone Pain ([2]; 25 mg, n = 10, grade 3): 0%
- AE Diarrhea ([2]; 25 mg, n = 10, grade 3): 0%
- AE Dizziness ([2]; 25 mg, n = 10, grade 3): 0%
- AE Face edema ([2]; 25 mg, n = 10, grade 3): 0%
- AE Fatigue ([2]; 25 mg, n = 10, grade 3): 0%
- AE Headache ([2]; 25 mg, n = 10, grade 3): 0%
- AE Nausea ([2]; 25 mg, n = 10, grade 3): 0%
- AE Periorbital edema ([2]; 25 mg, n = 10, grade 3): 0%
- AE Peripheral edema ([2]; 25 mg, n = 10, grade 3): 0%
- % of subjects with ≥1 AE ([2]; 50 mg, n = 10, any grade): 80%
- AE Bone Pain ([2]; 50 mg, n = 10, any grade): 0%
- AE Diarrhea ([2]; 50 mg, n = 10, any grade): 40%
- AE Dizziness ([2]; 50 mg, n = 10, any grade): 30%
- AE Face edema ([2]; 50 mg, n = 10, any grade): 0%
- AE Fatigue ([2]; 50 mg, n = 10, any grade): 10%
- AE Headache ([2]; 50 mg, n = 10, any grade): 30%
- AE Nausea ([2]; 50 mg, n = 10, any grade): 60%
- AE Periorbital edema ([2]; 50 mg, n = 10, any grade): 20%
- AE Peripheral edema ([2]; 50 mg, n = 10, any grade): 20%
- % of subjects with ≥1 AE ([2]; 50 mg, n = 10, grade 3): 20%
- AE Bone Pain ([2]; 50 mg, n = 10, grade 3): 0%
- AE Diarrhea ([2]; 50 mg, n = 10, grade 3): 10%
- AE Dizziness ([2]; 50 mg, n = 10, grade 3): 0%
- AE Face edema ([2]; 50 mg, n = 10, grade 3): 0%
- AE Fatigue ([2]; 50 mg, n = 10, grade 3): 0%
- AE Headache ([2]; 50 mg, n = 10, grade 3): 10%
- AE Nausea ([2]; 50 mg, n = 10, grade 3): 10%
- AE Periorbital edema ([2]; 50 mg, n = 10, grade 3): 0%
- AE Peripheral edema ([2]; 50 mg, n = 10, grade 3): 0%
- % of subjects with ≥1 AE ([2]; 100 mg, n = 10, any grade): 90%
- AE Bone Pain ([2]; 100 mg, n = 10, any grade): 0%
- AE Diarrhea ([2]; 100 mg, n = 10, any grade): 30%
- AE Dizziness ([2]; 100 mg, n = 10, any grade): 40%
- AE Face edema ([2]; 100 mg, n = 10, any grade): 40%
- AE Fatigue ([2]; 100 mg, n = 10, any grade): 10%
- AE Headache ([2]; 100 mg, n = 10, any grade): 30%
- AE Nausea ([2]; 100 mg, n = 10, any grade): 40%
- AE Periorbital edema ([2]; 100 mg, n = 10, any grade): 30%
- AE Peripheral edema ([2]; 100 mg, n = 10, any grade): 20%
- % of subjects with ≥1 AE ([2]; 100 mg, n = 10, grade 3): 40%
- AE Bone Pain ([2]; 100 mg, n = 10, grade 3): 0%
- AE Diarrhea ([2]; 100 mg, n = 10, grade 3): 10%
- AE Dizziness ([2]; 100 mg, n = 10, grade 3): 0%
- AE Face edema ([2]; 100 mg, n = 10, grade 3): 0%
- AE Fatigue ([2]; 100 mg, n = 10, grade 3): 0%
- AE Headache ([2]; 100 mg, n = 10, grade 3): 10%
- AE Nausea ([2]; 100 mg, n = 10, grade 3): 0%
- AE Periorbital edema ([2]; 100 mg, n = 10, grade 3): 0%
- AE Peripheral edema ([2]; 100 mg, n = 10, grade 3): 0%
- Tolerability ([2]; all doses (25, 50, 100 mg QD)): well-tolerated
- Discontinuation of treatment due to AEs ([2]; all doses, as of data cutoff): no discontinuations for adverse effects; also recorded: no patients discontinued treatment due to AEs
